The test has as its system Escherichia coli strain ATCC25922. Nature of the test: standard microdilution assay to determine minimum inhibitory concentrations (MICs). The format is cell-based. The note with it: for E. coli ATCC25922 MIC: Escherichia coli strain ATCC25922, microdilution; for MIC: Escherichia coli, ATCC25922, Escherichia coli strain ATCC25922, microdilution, read-out: E. coli ATCC25922 MIC. In outline:
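E. coli strain ATCC25922 tested per CLSI microdilution methodology (about 100 microliters per well) to find minimum inhibitory concentrations. Activity scored categorically at a 16 micrograms/ml threshold.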

The values below come from patent US9193731B2, “Antimicrobial compounds and methods of making and using the same” (Melinta Therapeutics, Inc., priority 2009, dated 2015).

As to `N=C(N)NCCCNCc1ccc(-n2cc3cc(-c4ccc(S(=O)(=O)N(Cc5ccc(Cl)c(SC(F)(F)F)c5)C5CCNCC5)cc4)[nH]c3nc2=O)cc1` [Compound 759], the “E. coli ATCC25922 MIC” value is “+ (a “+” indicates that the compound has an MIC value of 16 micrograms/ml or less)”.
For the compound `NCCCNCc1ccc(-n2cc3cc(-c4cc(C(=O)Nc5ccc(F)cc5)cc(N5CCNCC5)c4)[nH]c3nc2=O)cc1` [Compound 760], the MIC is < 16 µg/mL.
Turning to `N=C(N)NCCCNCc1ccc(-n2cc3cc(-c4cc(C(=O)Nc5ccc(F)cc5)cc(N5CCNCC5)c4)[nH]c3nc2=O)cc1` [Compound 761], the MIC was < 16 µg/mL.
As to `N=C(N)NCCCNCc1ccc(-c2cn3cc(-c4ccc(S(=O)(=O)N5CCOCC5)cc4)[nH]c3nc2=O)cc1` [Compound 762], the MIC is > 16 µg/mL.
For the compound `CCOCc1cc2cn(-c3ccc(CNCCCN)cc3)c(=O)nc2[nH]1` [Compound 764], the MIC is > 16 µg/mL.
Consider `N=C(N)NCCCNCc1ccc(-n2cc3cc(-c4ccc(S(=O)(=O)N(Cc5cc(OC(F)(F)F)ccc5F)C5CCNCC5)cc4)[nH]c3nc2=O)cc1` [Compound 767], for which the “E. coli ATCC25922 MIC” value was “+ (a “+” indicates that the compound has an MIC value of 16 micrograms/ml or less)”.
On to `N=C(N)NCCCNCc1ccc(-n2cc3cc(-c4ccc(S(=O)(=O)N(CC5COc6ccccc6O5)C5CCNCC5)cc4)[nH]c3nc2=O)cc1` (stereo not shown) [Compound 768], for which the “E. coli ATCC25922 MIC” value is “+ (a “+” indicates that the compound has an MIC value of 16 micrograms/ml or less)”.
Still for that read-out and setting: in the case of `N=C(N)NCCCNCc1ccc(-n2cc3cc(-c4ccc(S(=O)(=O)N(Cc5ccc6nonc6c5)C5CCNCC5)cc4)[nH]c3nc2=O)cc1` [Compound 769] it was “+ (a “+” indicates that the compound has an MIC value of 16 micrograms/ml or less)”; in that of `N=C(N)NCCCNCc1ccc(-n2cc3cc(-c4ccc(S(=O)(=O)N(CCOc5ccc(F)cc5)C5CCNCC5)cc4)[nH]c3nc2=O)cc1` [Compound 770], “+ (a “+” indicates that the compound has an MIC value of 16 micrograms/ml or less)”.
As to `CN(CCO)C(=O)c1ccc(-c2cn3cc(-c4ccc(CNCCCN)cc4)c(=O)nc3[nH]2)cc1` [Compound 771], the MIC is < 16 µg/mL.
On the same count and under the same terms, the result for `N=C(N)NCCCNCc1ccc(-c2cn3cc(-c4ccc(S(=O)(=O)NC5CCNCC5)cc4)[nH]c3nc2=O)cc1` [Compound 772] reads < 16 µg/mL; that for `NCCCNCc1ccc(-n2cc3cc(-c4cccc(N5CCNCC5)c4)[nH]c3nc2=O)cc1` [Compound 775], < 16 µg/mL; that for `N=C(N)NCCCNCc1ccc(-c2cn3cc(-c4ccc(C(=O)NC5CN6CCC5CC6)cc4)[nH]c3nc2=O)cc1` (stereo not shown) [Compound 778], < 16 µg/mL.
The same measure, in the same setting: in the case of `NCCCNCc1ccc(-n2cc3cc(CCN4CCS(=O)(=O)CC4)[nH]c3nc2=O)cc1` [Compound 784] it was > 16 µg/mL.
Same read-out and setting: the result for `N=C(N)NCCCNCc1ccc(-n2cc3cc(CCN4CCS(=O)(=O)CC4)[nH]c3nc2=O)cc1` [Compound 785] reads > 16 µg/mL.
With `N=C(N)NCCCNCc1ccc(-n2cc3cc(-c4ccc(S(=O)(=O)N(Cc5csc(-c6ccc(C(F)(F)F)cc6)n5)C5CCNCC5)cc4)[nH]c3nc2=O)cc1` [Compound 786], the “E. coli ATCC25922 MIC” value is on record as “+ (a “+” indicates that the compound has an MIC value of 16 micrograms/ml or less)”.
In the case of `COc1ccc(CN(C2CCNCC2)S(=O)(=O)c2ccc(-c3cc4cn(-c5ccc(CNCCCNC(=N)N)cc5)c(=O)nc4[nH]3)cc2)cc1[N+](=O)[O-]` [Compound 787], the “E. coli ATCC25922 MIC” value is “+ (a “+” indicates that the compound has an MIC value of 16 micrograms/ml or less)”.
With `N=C(N)NCCCNCc1ccc(-c2cn3cc(-c4ccc(S(=O)(=O)N5CCNCC5)cc4)[nH]c3nc2=O)cc1` [Compound 788], the MIC is < 16 µg/mL.
Turning to `NCCCNCc1ccc(-c2cn3cc(-c4ccc(S(=O)(=O)N5CCNCC5)cc4)[nH]c3nc2=O)cc1` [Compound 789], the minimal inhibitory concentration (MIC) is < 16 µg/mL.
Take `N=C(N)NCCCNCc1ccc(-c2cn3cc(-c4ccc(S(=O)(=O)N5CCN(C(=O)OCc6ccccc6)CC5)cc4)[nH]c3nc2=O)cc1` [Compound 790]: the “E. coli ATCC25922 MIC” value is on record as “+ (a “+” indicates that the compound has an MIC value of 16 micrograms/ml or less)”.
On to `NCCCNCc1ccc(-c2cn3cc(-c4ccc(S(=O)(=O)N5CCN(C(=O)OCc6ccccc6)CC5)cc4)[nH]c3nc2=O)cc1` [Compound 791], for which the MIC was > 16 µg/mL.
As for `CN(C)C(=O)c1cc(-c2cc3cn(-c4ccc(CNCCCN)cc4)c(=O)nc3[nH]2)cc(N2CCNCC2)c1` [Compound 796], the MIC was < 16 µg/mL.
For `CN(C)C(=O)c1cc(-c2cc3cn(-c4ccc(CNCCCNC(=N)N)cc4)c(=O)nc3[nH]2)cc(N2CCNCC2)c1` [Compound 797], the MIC was < 16 µg/mL.
As to `NCCCNCc1ccc(-c2cn3cc(-c4ccc(C(=O)NC5CCOCC5)cc4)[nH]c3nc2=O)cc1` [Compound 799], the minimal inhibitory concentration (MIC) was > 16 µg/mL.
For the compound `N=C(N)NCCCNCc1ccc(-n2cc3cc(-c4ccc(S(=O)(=O)N(CCCc5cccnc5)C5CCNCC5)cc4)[nH]c3nc2=O)cc1` [Compound 801], the “E. coli ATCC25922 MIC” value is given as “+ (a “+” indicates that the compound has an MIC value of 16 micrograms/ml or less)”.
Consider `COCCOCCN(C1CCNCC1)S(=O)(=O)c1ccc(-c2cc3cn(-c4ccc(CNCCCNC(=N)N)cc4)c(=O)nc3[nH]2)cc1` [Compound 802], for which the “E. coli ATCC25922 MIC” value is listed as “+ (a “+” indicates that the compound has an MIC value of 16 micrograms/ml or less)”.
Consider `N=C(N)NCCCNCc1ccc(-n2cc3cc(-c4ccc(S(=O)(=O)N(Cc5cc(-c6ccc(Cl)cc6)on5)C5CCNCC5)cc4)[nH]c3nc2=O)cc1` [Compound 803], for which the “E. coli ATCC25922 MIC” value is reported as “+ (a “+” indicates that the compound has an MIC value of 16 micrograms/ml or less)”.
As for `N=C(N)NCCCNCc1ccc(-n2cc3cc(-c4ccc(S(=O)(=O)NC5CCCNC5)cc4)[nH]c3nc2=O)cc1` (stereo not shown) [Compound 805], the “E. coli ATCC25922 MIC” value was “+ (a “+” indicates that the compound has an MIC value of 16 micrograms/ml or less)”.
In the case of `NCCCNCc1ccc(-n2cc3cc(-c4ccc(S(=O)(=O)NC5CCCNC5)cc4)[nH]c3nc2=O)cc1` (stereo not shown) [Compound 807], the “E. coli ATCC25922 MIC” value is recorded as “+ (a “+” indicates that the compound has an MIC value of 16 micrograms/ml or less)”.
Take `N=C(N)NCCCNCc1ccc(-c2cn3cc(-c4ccc(C(=O)N5CCC(N)CC5)cc4)[nH]c3nc2=O)cc1` [Compound 808]: the “E. coli ATCC25922 MIC” value was “+ (a “+” indicates that the compound has an MIC value of 16 micrograms/ml or less)”.
The same measure, in the same setting: the result for `NCCCCOc1ccc(-c2cn3cc(-c4ccc(S(=O)(=O)N5CCNCC5)cc4)[nH]c3nc2=O)cc1` [Compound 809] reads “− (a “−” indicates that the compound has an MIC value greater than 16 micrograms/ml)”.
In the case of `NCCCCOc1ccc(-c2cn3cc(-c4ccc(Br)cc4)[nH]c3nc2=O)cc1` [Compound 810], the MIC was > 16 µg/mL.
Same read-out and setting: the result for `N=C(N)NCCCCOc1ccc(-c2cn3cc(-c4ccc(Br)cc4)[nH]c3nc2=O)cc1` [Compound 813] reads > 16 µg/mL.
On to `NCCCNCc1ccc(-n2cc3cc(CCN[C@@H]4CCCNC4)[nH]c3nc2=O)cc1` [Compound 814], for which the MIC is < 16 µg/mL.
Same read-out and setting: in the case of `N=C(N)NCCCNCc1ccc(-n2cc3cc(CCN[C@@H]4CCCNC4)[nH]c3nc2=O)cc1` [Compound 815] it was < 16 µg/mL; in that of `NCCCNCc1ccc(-n2cc3cc(CCN[C@H]4CCCNC4)[nH]c3nc2=O)cc1` [Compound 816], < 16 µg/mL; in that of `N=C(N)NCCCNCc1ccc(-n2cc3cc(CCN[C@H]4CCCNC4)[nH]c3nc2=O)cc1` [Compound 817], < 16 µg/mL.
Consider `CC1CN(C(=O)c2ccc(-c3cn4cc(-c5ccc(CNCCCN)cc5)c(=O)nc4[nH]3)cc2)CC(C)N1` (stereo not shown) [Compound 819], for which the “E. coli ATCC25922 MIC” value is recorded as “+ (a “+” indicates that the compound has an MIC value of 16 micrograms/ml or less)”.
Take `CC1CN(C(=O)c2ccc(-c3cn4cc(-c5ccc(CNCCCN)cc5)c(=O)nc4[nH]3)cc2)CCN1` (stereo not shown) [Compound 821]: the “E. coli ATCC25922 MIC” value was “+ (a “+” indicates that the compound has an MIC value of 16 micrograms/ml or less)”.
As to `CC1CN(C(=O)c2ccc(-c3cn4cc(-c5ccc(CNCCCNC(=N)N)cc5)c(=O)nc4[nH]3)cc2)CCN1` (stereo not shown) [Compound 822], the “E. coli ATCC25922 MIC” value is on record as “+ (a “+” indicates that the compound has an MIC value of 16 micrograms/ml or less)”.
`NCCCNCc1ccc(-n2cc3cc(-c4cccc(S(=O)(=O)NC5CCNCC5)c4)[nH]c3nc2=O)cc1` [Compound 823]: the “E. coli ATCC25922 MIC” value is reported as “+ (a “+” indicates that the compound has an MIC value of 16 micrograms/ml or less)”.
For `NCCCCOc1ccc(-c2cn3cc(-c4ccc(S(=O)(=O)NC5CCNCC5)cc4)[nH]c3nc2=O)cc1` [Compound 824], the “E. coli ATCC25922 MIC” value was “− (a “−” indicates that the compound has an MIC value greater than 16 micrograms/ml)”.
As to `NCCCNCc1ccc(-c2cn3cc(-c4ccc(C(=O)N5CCN(CCF)CC5)cc4)[nH]c3nc2=O)cc1` [Compound 825], the “E. coli ATCC25922 MIC” value is on record as “− (a “−” indicates that the compound has an MIC value greater than 16 micrograms/ml)”.
Consider `N=C(N)NCCCNCc1ccc(-c2cn3cc(-c4ccc(C(=O)N5CCN(CCF)CC5)cc4)[nH]c3nc2=O)cc1` [Compound 826], for which the “E. coli ATCC25922 MIC” value is on record as “− (a “−” indicates that the compound has an MIC value greater than 16 micrograms/ml)”.
In the case of `NCCCNCc1ccc(-c2cn3cc(-c4ccc(C(=O)NCCO)cc4)[nH]c3nc2=O)cc1` [Compound 827], the MIC was > 16 µg/mL.
As to `N=C(N)NCCCNCc1ccc(-c2cn3cc(-c4ccc(C(=O)NCCO)cc4)[nH]c3nc2=O)cc1` [Compound 828], the “E. coli ATCC25922 MIC” value is “+ (a “+” indicates that the compound has an MIC value of 16 micrograms/ml or less)”.
Take `NCCCCOc1ccc(-c2cn3cc(-c4ccc(C(=O)NC5CCNCC5)cc4)[nH]c3nc2=O)cc1` [Compound 829]: the MIC was > 16 µg/mL.
For `NCCCNCc1ccc(-n2cc3cc(-c4ccc(S(=O)(=O)N(CC5CCOCC5)C5CCCNC5)cc4)[nH]c3nc2=O)cc1` (stereo not shown) [Compound 830], the minimal inhibitory concentration (MIC) is > 16 µg/mL.
Regarding `NCCCNCc1ccc(-n2cc3cc(-c4ccc(S(=O)(=O)N(CC5CCOCC5)C5CCCNC5)cc4)[nH]c3nc2=O)cc1` (stereo not shown) [Compound 831], the “E. coli ATCC25922 MIC” value is reported as “+ (a “+” indicates that the compound has an MIC value of 16 micrograms/ml or less)”.
